Test results taken from publication PMC13242511, “Disrupting Notch signalling by a small molecule inhibiting dihydroorotate dehydrogenase activity” (Scientific Reports, 2026).
“And” between values parts separate entries of the source, which are not always exact repeats. Identical values can stand only once. “Also recorded” adds a separate entry of the source. Like-named read-outs stand apart in the source and are kept apart here.

Experiments:
Notch signalling = assay: Notch reporter assay (12xCSL firefly luciferase / renilla luciferase, HEK293T Notch1ΔE reporter cell line clone #A1-11); type: cell-based; parameters: AUC Notch: scale not given here; settings: for Bottom (Emax): Emax indicated independent from assay constraints, in % (unit assumed); for activity: 1,25µM; for AUC Notch: area under the 14-point dose-response curve; for concentrations associated with cytotoxicity (high dose-points removed): extended dose range, Supplemental Fig. 7B; for Notch assay: overview in comparison to compound C, Supplemental Fig. 9; for AUC 9p Notch reporter assay / AUC 14p Notch reporter assay: AUCs averaged when replicates available
How it was run: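 Compounds at two-fold concentration in 10 µl medium were brought to one-fold by adding 10 µl holding 4000 Notch reporter cells (clone #A1-11) per well of a 384-well plate. After 24 h, Promega dual-GLO firefly and renilla luciferase were read on a SpectraMaxi3. Dose-response curves were fitted with a log(inhibitor) vs. response variable-slope model.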

γ-secretase complex = γ-secretase complex (Homo sapiens, UniProt P49768); assay: APP-C99 counter assay (GSI reporter assay); type: cell-based; parameters: AUC APP: scale not given here; settings: for remaining activity at 10 µM / activity at 10 µM / remaining activity at 25 µM / remaining activity at […]: 24 h; for remaining activity at 10 µM / remaining activity at 25 µM / remaining activity at […]: APP-C99 counter assay, read-out: 3p-DR in % of DMSO counter; for activity at 10 µM: sheet conf vs counter 10 µM, read-out: Counter screen (Hek APP-C99); for remaining activity at […]: 1,25µM; for AUC APP: area under the 14-point dose-response curve, replicates averaged; for Hill-Slope 9p APP counter assay averaged / AUC 9p APP-counter assay: 9p dose response; for AUC 9p APP-counter assay / AUC. 14p APP-counter assay: AUCs averaged when replicates available; for AUC. 14p APP-counter assay: 14p dose response; for APP assay: overview in comparison to compound C, Supplemental Fig. 9
How it was run: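 Cells transfected with APP-C99 firefly luciferase reporter plus renilla normalization plasmid, seeded 24 h later onto compound plates and cultured 24 h. Dual luciferase read in triplicate per concentration; IC50 from variable-slope log(inhibitor) fit, with AUC also calculated from dose–response curves.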

[1] = Homo sapiens, HEK-293T, 14-point, unit inferred, replicates averaged, read-out: approxiated IC50s 14p Notch reporter assay
[2] = Homo sapiens, HEK-293T, 14p Notch assay DR, log10 value, bottom constrained to Emax of positive control DAPT, read-out: approximated LogIC50 (converted)
[3] = Homo sapiens, HEK-293T, 10 µM, primary screen, 24 h, unit from Fig. 2 legend, read-out: Primary screen at 10 µM (Notch reporter signal)
[4] = Homo sapiens, HEK-293T, 10 µM, three-dose confirmation screen, unit from Fig. 2 legend, read-out: Hit confirmation at 10 µM (Notch reporter signal)
[5] = Homo sapiens, HEK-293T, 10µM, 3-point DR confirmation screen, Notch reporter assay, read-out: inhibitor ratio in % of DMSO in 3 point DR
[6] = Homo sapiens, HEK-293T, 10 µM, sheet conf vs counter 10 µM, same values as 3-point DR confirmation screen, read-out: Confirmation screen
[7] = Homo sapiens, HEK-293T, 25µM, 3-point DR confirmation screen, Notch reporter assay, read-out: inhibitor ratio in % of DMSO in 3 point DR
[8] = Homo sapiens, HEK-293T, 25 µM, Notch reporter 3-point dose-confirmation assay, sheet "conf vs counter 25 µM", read-out: Confirmation screen
[9] = Homo sapiens, HEK-293T, 3-point DR confirmation screen, Notch reporter assay, read-out: inhibitor ratio in % of DMSO in 3 point DR
[10] = 14p APP assay DR, bottom constrained to Emax of positive control LY-411575
[11] = 14p dose response, single replicates, read-out: approximated IC50s 14p Notch reporter assay
[12] = Homo sapiens, HEK-293T, 9p dose response, averaged over replicates, read-out: 9p Notch reporter assay averaged IC50s
[13] = Homo sapiens, HEK-293T, 9p dose response, log10 of averaged IC50, read-out: 9p Notch reporter assay averaged IC50s (log) (converted)
[14] = Homo sapiens, HEK-293T, 14p Notch assay DR, log10 value, Notch inhibitor controls, no bottom constraint named, read-out: approximated LogIC50 (converted)
[15] = Homo sapiens, HEK-293T, 14p dose response, single replicates, read-out: approximated IC50s 14p Notch reporter assay
[16] = Homo sapiens, HEK-293T, 14p dose response, log10 of averaged IC50, read-out: 14p Notch reporter assay averaged IC50s (log) (converted)
[17] = Homo sapiens, HEK-293T, 14-point dose-response, Fig. 4, read-out: approximated IC50, Notch reporter assay
[18] = Homo sapiens, HEK-293T, 14p Notch assay DR, bottom constrained to Emax of positive control DAPT, read-out: approximated IC50
[19] = Homo sapiens, HEK-293T, 14p Notch assay DR, bottom constrained to Emax of positive control RO4929097, read-out: approximated IC50
[20] = Homo sapiens, HEK-293T, 14p Notch assay DR, log10 value, bottom constrained to Emax of positive control RO4929097, read-out: approximated LogIC50 (converted)

SMILES | Bottom (Emax) (Notch signalling; 14p Notch assay DR) | IC50 (Notch signalling; [1]) | IC50 (Notch signalling; [2]) | activity at 10 µM (Notch signalling; [3]) | activity at 10 µM (Notch signalling; [4]) | activity at 10 µM (Notch signalling; [5]) | activity at 10 µM (Notch signalling; [6]) | activity at 25 µM (Notch signalling; [7]) | activity at 25 µM (Notch signalling; [8]) | activity (Notch signalling; [9]) | AUC Notch (Notch signalling; replicates averaged) | concentrations associated with cytotoxicity (high dose-points removed) (Notch signalling) | Notch assay (Notch signalling) | Hill-slope (γ-secretase complex; [10]) | remaining activity at 10 µM (γ-secretase complex) | activity at 10 µM (γ-secretase complex) | remaining activity at 25 µM (γ-secretase complex) | remaining activity at […] (γ-secretase complex) | AUC APP (γ-secretase complex) | IC50 (Notch signalling; [17]) | further results
COc1cccc(CNc2ccc(N3CCCCC3)cc2)c1OCc1cccs1 [compound C] | 45.4 | 1200 nM | 1260 nM | 50.1% | 66.2% | 66.2% | 66.2% | 65.1% | 65.1% | 61.8% | 584.0 | higher than 12.5 µM | nanomolar potency | 0.0377 | 150% | 150% | 152% | 157% | 731.3 |  | Hill slope, Notch reporter assay (Notch signalling; 14-point dose-response): -16.2; IC50 (Notch signalling; Homo sapiens, HEK-293T, dose range 50 µM-2.5 nM, Fig. 7E, read-out: IC50, Notch reporter activity): 150 nM
CC(C)(C(=O)NCC(F)(F)C(F)(F)F)C(=O)N[C@@H]1C(=O)Nc2ccccc2-c2ccccc21 [RO4929097, reference compound] |  | 53 nM |  |  |  |  |  |  |  |  | 430.0 |  | higher potency |  |  |  |  |  | 527.4 |  | IC50 (Notch signalling; 9p dose response, single replicates, read-out: approximated IC50s 9p Notch reporter assay): 31 nM and 13 nM; AUC 9p Notch reporter assay (Notch signalling; 9p dose response): 2.36E+02; IC50 (Notch signalling; [11]): 45 nM; AUC 14p Notch reporter assay (Notch signalling; 14p dose response): 4.30E+02; IC50 (Notch signalling; [12]): 22 nM; IC50 (Notch signalling; [13]): 20 nM; IC50 (Notch signalling; Homo sapiens, HEK-293T, 14p Notch assay DR, Notch inhibitor controls, no bottom constraint named, read-out: approximated IC50): 21.7 nM; IC50 (Notch signalling; Homo sapiens, HEK-293T, 14p Notch assay DR, averaged when replicate measurements were available, read-out: averaged IC50s): 42 nM; IC50 (Notch signalling; [14]): 63.1 nM; IC50 (Notch signalling; [15]): 60 nM; IC50 (Notch signalling; [16]): 50.1 nM; Hill-Slope 9p APP counter assay averaged (γ-secretase complex): -1.5; AUC 9p APP-counter assay (γ-secretase complex): 2.88E+02; AUC. 14p APP-counter assay (γ-secretase complex): 5.27E+02; APP assay (γ-secretase complex): higher potency
Cc1ccc2[nH]c3c(c2c1)CCOC31CCN(Cc2ccccc2-c2ccccc2)CC1 [compound B] |  | 910 nM | 1260 nM | 60.8% | 65% |  | 65% |  | 69.3% | 79.7% | 573.0 | higher than 5 µM |  |  | 113% |  | 149% | 100% | 643.8 | 900 nM | IC50 (Notch signalling; [18]): 1200 nM; IC50 (Notch signalling; [19]): 590 nM; IC50 (Notch signalling; [20]): 631 nM
Cc1nn(-c2nc3ccccc3s2)c(O)c1C1OC(=O)c2ccccc21 (stereo not drawn) [compound E] | 54.2 |  | 794 nM | 45% | 38% | 38% | 38% | 35.2% | 35.2% | 37.1% | 577.0 |  |  | -0.00246 | 80.7% |  | 81.7% | 83.7% | 684.1 | 730 nM | IC50 (Notch signalling; 14-point dose-response, Fig. 4, read-out: approximated IC50, Notch reporter assay): 700 nM
CCc1c(C(=O)N(C)Cc2cnn(C(C)C)c2)[nH]c2ccccc12 [compound A] |  | 3400 nM | 3980 nM | 25.3% | 27.7% | 27.7% | 27.7% | 19% | 19% | 65.8% | 535.0 |  |  | -1.6 | 71.4% | 71.3% | 62.2% | 75.7% | 658.8 | 3300 nM | IC50 (Notch signalling; Homo sapiens, HEK-293T, 14-point dose-response, read-out: approximated IC50, Notch reporter assay): 4000 nM; IC50 (Notch signalling; [18]): 4200 nM; IC50 (Notch signalling; [19]): 2500 nM; IC50 (Notch signalling; [20]): 2510 nM; effect in the APP assay (γ-secretase complex; 14-point dose-response, Supplemental Fig. 4J): showed an inhibitory effect at high concentrations; Hill-slope (γ-secretase complex; 14p APP assay DR, bottom constrained to Emax of positive control CB-103): -1.6
CC(C)(C)c1ccc(Oc2ccc(N)cn2)cc1 [CB-103, reference compound] |  | 5500 nM |  |  |  |  |  |  |  |  | 546.0 |  | lower potency; also recorded: lower activity than compound C |  |  |  |  |  | 548.4 |  | AUC 9p Notch reporter assay (Notch signalling; 9p dose response): 3.40E+02; IC50 (Notch signalling; [11]): 5800 nM; AUC 14p Notch reporter assay (Notch signalling; 14p dose response): 5.46E+02; IC50 (Notch signalling; [12]): 15000 nM; IC50 (Notch signalling; [13]): 15800 nM; IC50 (Notch signalling; [14]): 6310 nM; IC50 (Notch signalling; [15]): 5100 nM; IC50 (Notch signalling; [16]): 5010 nM; Hill-Slope 9p APP counter assay averaged (γ-secretase complex): -2.0; AUC 9p APP-counter assay (γ-secretase complex): 3.16E+02; curve fit information (γ-secretase complex; 14p APP assay DR, Notch inhibitor controls, no bottom constraint named): IC50 indeterminate; AUC. 14p APP-counter assay (γ-secretase complex): 5.48E+02; APP assay (γ-secretase complex): weak potency
